Data as given in PubChem BioAssay (NCI).
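How tested: cells in 96-well plates exposed to compound for 48 hours at five concentrations. Abbreviation: GI50, concentration required for 50% inhibition of growth. Definition used: TGI = concentration required for complete inhibition of growth.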

How the values were obtained:
Assay in all cases: NCI anticancer screen, dose series, 48 h
HOP-62 NSCLC = tested on: HOP-62 NSCLC
T-47D breast = tested on: T-47D breast
SR leukemia = tested on: SR leukemia
HCT-15 colon = tested on: HCT-15 colon
SW-620 colon = tested on: SW-620 colon
SNB-19 CNS = tested on: SNB-19 CNS
NCI-H522 lung = tested on: NCI-H522 lung
HL-60(TB) leukemia = tested on: HL-60(TB) leukemia
LOX IMVI melanoma = tested on: LOX IMVI melanoma
UACC-257 melanoma = tested on: UACC-257 melanoma
SK-MEL-28 melanoma = tested on: SK-MEL-28 melanoma
UO-31 renal = tested on: UO-31 renal
CAKI-1 renal = tested on: CAKI-1 renal
SK-MEL-2 melanoma = tested on: SK-MEL-2 melanoma
HT29 colon = tested on: HT29 colon
NCI-H226 lung = tested on: NCI-H226 lung
NCI-H460 lung = tested on: NCI-H460 lung
MOLT-4 leukemia = tested on: MOLT-4 leukemia
RPMI-8226 leukemia = tested on: RPMI-8226 leukemia
HS 578T breast = tested on: HS 578T breast
A498 renal = tested on: A498 renal
OVCAR-5 ovarian = tested on: OVCAR-5 ovarian
OVCAR-4 ovarian = tested on: OVCAR-4 ovarian
MALME-3M melanoma = tested on: MALME-3M melanoma
SN12C renal = tested on: SN12C renal
PC-3 prostate = tested on: PC-3 prostate
786-0 renal = tested on: 786-0 renal
SF-295 CNS = tested on: SF-295 CNS
HOP-92 NSCLC = tested on: HOP-92 NSCLC
TK-10 renal = tested on: TK-10 renal
MDA-MB-435 = tested on: MDA-MB-435
NCI-H23 lung = tested on: NCI-H23 lung
ACHN renal = tested on: ACHN renal
SK-OV-3 ovarian = tested on: SK-OV-3 ovarian
BT-549 breast = tested on: BT-549 breast
SK-MEL-5 melanoma = tested on: SK-MEL-5 melanoma
UACC-62 melanoma = tested on: UACC-62 melanoma
U251 CNS = tested on: U251 CNS
OVCAR-3 ovarian = tested on: OVCAR-3 ovarian
COLO 205 colon = tested on: COLO 205 colon
MCF7 breast = tested on: MCF7 breast
DU-145 prostate = tested on: DU-145 prostate
EKVX NSCLC = tested on: EKVX NSCLC
MDA-MB-231 breast = tested on: MDA-MB-231 breast
M14 melanoma = tested on: M14 melanoma
IGROV1 ovarian = tested on: IGROV1 ovarian
SF-268 CNS = tested on: SF-268 CNS
A549 NSCLC = tested on: A549 NSCLC
HCT-116 colon = tested on: HCT-116 colon
OVCAR-8 ovarian = tested on: OVCAR-8 ovarian
SF-539 CNS = tested on: SF-539 CNS
CCRF-CEM leukemia = tested on: CCRF-CEM leukemia
KM12 colon = tested on: KM12 colon
NCI/ADR-RES ovarian = tested on: NCI/ADR-RES ovarian
SNB-75 CNS = tested on: SNB-75 CNS
K-562 leukemia = tested on: K-562 leukemia

Molecule `c1cc(N2CCN(c3ccc(C4=NCCN4)cc3)CC2)ccc1C1=NCCN1` has a GI50 (HOP-62 NSCLC) of 16 µM, a TGI (HOP-62 NSCLC) of 58.7 µM and a GI50 (T-47D breast) of over 100 µM. The TGI (T-47D breast) was over 100 µM, the GI50 (SR leukemia) was 30.8 µM and the TGI (SR leukemia) was over 100 µM. The GI50 (HCT-15 colon) was 66.3 µM, the TGI (HCT-15 colon) was over 100 µM and the GI50 (SW-620 colon) was over 100 µM. It also gave a TGI (SW-620 colon) of over 100 µM, a GI50 (SNB-19 CNS) of over 100 µM and a TGI (SNB-19 CNS) of over 100 µM. It also gave a GI50 (NCI-H522 lung) of 21.2 µM, a TGI (NCI-H522 lung) of over 77.3 µM and a GI50 (HL-60(TB) leukemia) of over 100 µM. It also gave a TGI (HL-60(TB) leukemia) of over 100 µM, a GI50 (LOX IMVI melanoma) of over 100 µM and a TGI (LOX IMVI melanoma) of over 100 µM. The GI50 (UACC-257 melanoma) was 58.7 µM, the TGI (UACC-257 melanoma) was 97.5 µM and the GI50 (SK-MEL-28 melanoma) was over 67.5 µM. For the same molecule, the TGI (SK-MEL-28 melanoma) was over 100 µM, the GI50 (UO-31 renal) was over 72 µM and the TGI (UO-31 renal) was over 100 µM. It also gave a GI50 (CAKI-1 renal) of over 57.5 µM, a TGI (CAKI-1 renal) of over 100 µM and a GI50 (SK-MEL-2 melanoma) of 52.4 µM. It also gave a TGI (SK-MEL-2 melanoma) of over 100 µM, a GI50 (HT29 colon) of over 100 µM and a TGI (HT29 colon) of over 100 µM. The GI50 (NCI-H226 lung) was over 80.6 µM, the TGI (NCI-H226 lung) was over 100 µM and the GI50 (NCI-H460 lung) was 24.9 µM. For the same molecule, the TGI (NCI-H460 lung) was over 100 µM, the GI50 (MOLT-4 leukemia) was over 100 µM and the TGI (MOLT-4 leukemia) was over 100 µM. For the same molecule, the GI50 (RPMI-8226 leukemia) was 12.8 µM, the TGI (RPMI-8226 leukemia) was over 53.5 µM and the GI50 (HS 578T breast) was 25.1 µM. The TGI (HS 578T breast) was over 78.2 µM, the GI50 (A498 renal) was 7.5 µM and the TGI (A498 renal) was over 100 µM. It also gave a GI50 (OVCAR-5 ovarian) of over 100 µM, a TGI (OVCAR-5 ovarian) of over 100 µM and a GI50 (OVCAR-4 ovarian) of over 100 µM. It also gave a TGI (OVCAR-4 ovarian) of over 100 µM, a GI50 (MALME-3M melanoma) of 48.8 µM and a TGI (MALME-3M melanoma) of over 100 µM. It also gave a GI50 (SN12C renal) of 1.85 µM, a TGI (SN12C renal) of over 26.4 µM and a GI50 (PC-3 prostate) of over 73.6 µM. It also gave a TGI (PC-3 prostate) of over 100 µM, a GI50 (786-0 renal) of over 68.9 µM and a TGI (786-0 renal) of over 100 µM. It also gave a GI50 (SF-295 CNS) of 24.8 µM, a TGI (SF-295 CNS) of over 80.4 µM and a GI50 (HOP-92 NSCLC) of over 100 µM. For the same molecule, the TGI (HOP-92 NSCLC) was over 100 µM, the GI50 (TK-10 renal) was 43 µM and the TGI (TK-10 renal) was 98.9 µM. For the same molecule, the GI50 (MDA-MB-435) was 58 µM, the TGI (MDA-MB-435) was over 100 µM and the GI50 (NCI-H23 lung) was over 44.4 µM. For the same molecule, the TGI (NCI-H23 lung) was over 100 µM, the GI50 (ACHN renal) was over 100 µM and the TGI (ACHN renal) was over 100 µM. The GI50 (SK-OV-3 ovarian) was over 100 µM, the TGI (SK-OV-3 ovarian) was over 100 µM and the GI50 (BT-549 breast) was 24.9 µM. For the same molecule, the TGI (BT-549 breast) was over 84.5 µM, the GI50 (SK-MEL-5 melanoma) was 22.4 µM and the TGI (SK-MEL-5 melanoma) was over 68.8 µM. It also gave a GI50 (UACC-62 melanoma) of 41.9 µM, a TGI (UACC-62 melanoma) of over 100 µM and a GI50 (U251 CNS) of 32.7 µM. The TGI (U251 CNS) was over 100 µM, the GI50 (OVCAR-3 ovarian) was over 46.9 µM and the TGI (OVCAR-3 ovarian) was over 86 µM. The GI50 (COLO 205 colon) was over 100 µM, the TGI (COLO 205 colon) was over 100 µM and the GI50 (MCF7 breast) was 24.6 µM. For the same molecule, the TGI (MCF7 breast) was over 100 µM, the GI50 (DU-145 prostate) was 45.7 µM and the TGI (DU-145 prostate) was over 100 µM. It also gave a GI50 (EKVX NSCLC) of 11.5 µM, a TGI (EKVX NSCLC) of 65.2 µM and a GI50 (MDA-MB-231 breast) of over 100 µM. The TGI (MDA-MB-231 breast) was over 100 µM, the GI50 (M14 melanoma) was over 61 µM and the TGI (M14 melanoma) was over 100 µM. The GI50 (IGROV1 ovarian) was 55.9 µM, the TGI (IGROV1 ovarian) was over 100 µM and the GI50 (SF-268 CNS) was over 75.3 µM. It also gave a TGI (SF-268 CNS) of over 100 µM, a GI50 (A549 NSCLC) of 66.7 µM and a TGI (A549 NSCLC) of over 100 µM. It also gave a GI50 (HCT-116 colon) of over 100 µM, a TGI (HCT-116 colon) of over 100 µM and a GI50 (OVCAR-8 ovarian) of 37.2 µM. For the same molecule, the TGI (OVCAR-8 ovarian) was over 100 µM, the GI50 (SF-539 CNS) was 55.4 µM and the TGI (SF-539 CNS) was over 100 µM. The GI50 (CCRF-CEM leukemia) was over 87.4 µM, the TGI (CCRF-CEM leukemia) was over 100 µM and the GI50 (KM12 colon) was over 49 µM. It also gave a TGI (KM12 colon) of over 96.1 µM, a GI50 (NCI/ADR-RES ovarian) of over 100 µM and a TGI (NCI/ADR-RES ovarian) of over 100 µM. The GI50 (SNB-75 CNS) was over 100 µM, the TGI (SNB-75 CNS) was over 100 µM and the GI50 (K-562 leukemia) was 39.4 µM. For the same molecule, the TGI (K-562 leukemia) was over 100 µM.
